Data as given in paper PMC6001782 (Chemistry (Weinheim an Der Bergstrasse, Germany), 2018).

Molecular target: T1, BtGH99 (Bacteroides thetaiotaomicron, UniProt Q8A109)
T1 sequence (Q8A109 18-382): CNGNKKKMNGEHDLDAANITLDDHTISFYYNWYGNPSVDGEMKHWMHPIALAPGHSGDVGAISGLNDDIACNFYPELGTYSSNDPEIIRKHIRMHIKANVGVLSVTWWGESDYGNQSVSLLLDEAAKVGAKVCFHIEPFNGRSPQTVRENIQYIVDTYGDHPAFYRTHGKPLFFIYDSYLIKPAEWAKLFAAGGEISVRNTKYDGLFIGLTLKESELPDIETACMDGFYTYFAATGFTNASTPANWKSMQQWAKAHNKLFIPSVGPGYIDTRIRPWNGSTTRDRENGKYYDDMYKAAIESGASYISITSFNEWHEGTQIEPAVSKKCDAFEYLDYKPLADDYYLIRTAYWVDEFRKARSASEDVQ
Assay: isothermal titration calorimetry
Type: binding

Kd: 97.7 ± 4.9 µM
SMILES: N[C@@H]1CN[C@H](CO)[C@@H](O)[C@@H]1O[C@H]1O[C@H](CO)[C@@H](O)[C@H](O)[C@@H]1O [compound 1, α‐D‐Mannopyranosyl‐(1→3)‐2‐amino‐1,2,5‐trideoxy‐1,5‐imino‐D‐mannitol]
